Patent US20110124888A1, “STYRYLBENZOFURAN DERIVATIVES AS INHIBITORS FOR BETA-AMYLOID FIBRIL FORMATION AND PREPARATION METHOD THEREOF” (Korea Institute of Science and Technology, priority 2008, published 2011)
Read-outs that look alike come from different tables or passages of the source.

Tests used:
[1] = biological target: hERG potassium ion channel (Homo sapiens, UniProt Q12809); test: Inhibitory effect on hERG potassium ion channel (whole-cell patch clamp, HEK-hERG cells); type: cell-based; conditions: for IC50: whole-cell patch clamp, room temperature, mean ± standard error, read-out: Inhibitory efficacy (IC50)
hERG potassium ion channel, sequence (Q12809 whole entry): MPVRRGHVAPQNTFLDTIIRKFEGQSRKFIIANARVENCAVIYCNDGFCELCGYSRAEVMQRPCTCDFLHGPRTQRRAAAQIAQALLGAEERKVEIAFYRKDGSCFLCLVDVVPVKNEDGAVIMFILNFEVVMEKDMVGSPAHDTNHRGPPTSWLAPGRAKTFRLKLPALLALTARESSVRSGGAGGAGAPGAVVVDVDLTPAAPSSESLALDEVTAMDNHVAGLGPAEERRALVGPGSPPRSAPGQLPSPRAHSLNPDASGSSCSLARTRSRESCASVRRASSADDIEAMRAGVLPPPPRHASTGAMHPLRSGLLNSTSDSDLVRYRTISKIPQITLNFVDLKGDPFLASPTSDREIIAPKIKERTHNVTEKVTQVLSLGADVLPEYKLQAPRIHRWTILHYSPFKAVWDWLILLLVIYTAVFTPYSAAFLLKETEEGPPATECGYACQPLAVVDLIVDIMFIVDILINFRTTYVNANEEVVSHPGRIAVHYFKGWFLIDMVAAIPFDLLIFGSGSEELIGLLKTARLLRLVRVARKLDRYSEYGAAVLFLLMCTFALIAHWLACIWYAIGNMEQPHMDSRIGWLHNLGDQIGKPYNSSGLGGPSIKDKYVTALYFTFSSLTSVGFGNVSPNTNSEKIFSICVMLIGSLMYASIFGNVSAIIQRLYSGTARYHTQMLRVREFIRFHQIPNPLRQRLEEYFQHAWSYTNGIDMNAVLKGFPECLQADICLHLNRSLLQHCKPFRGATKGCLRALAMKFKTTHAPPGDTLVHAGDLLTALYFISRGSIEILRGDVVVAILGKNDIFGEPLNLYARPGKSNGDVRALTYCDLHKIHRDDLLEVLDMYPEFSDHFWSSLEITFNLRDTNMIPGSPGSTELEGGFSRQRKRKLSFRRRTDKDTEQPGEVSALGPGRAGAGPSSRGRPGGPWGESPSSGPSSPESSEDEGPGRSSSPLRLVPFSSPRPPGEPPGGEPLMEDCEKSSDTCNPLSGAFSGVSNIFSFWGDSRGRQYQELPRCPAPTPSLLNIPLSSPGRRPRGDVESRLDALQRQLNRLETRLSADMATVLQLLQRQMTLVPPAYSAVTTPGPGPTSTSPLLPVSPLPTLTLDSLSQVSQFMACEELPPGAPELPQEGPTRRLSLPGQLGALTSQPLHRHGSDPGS
Protocol: 1) Model Cell Line and Culture
A HEK-hERG cell line (lonGate Biosciences, Frankfurt, Germany Co.), which expresses hERG stably, was cultured in a DMEM (Dulbecco's Modified Eagle's Medium, Sigma Co., St. Louis, Mo., USA) supplemented with 10% fetal bovine serum (FBS, Cambrex, Walkersville, Md., USA) and 0.5 mg/mL zeocin (Invitrogen, Carlsbad, Calif., USA). The cell line was subcultured 5 days after culture when 80% confluency was reached.
2) Preparation of Test Solution and Test Drug
A solution within an electrode used to measure the potassium ion current is composed of 115 mM K-aspartate, 20 mM KCl, 10 mM EGTA, 10 mM HEPES, 2.5 mM tris-phosphocreatine, 0.1 mM Na2GTP and 5 mM MgCl2 (pH 7.2, 290 mOsm/Kg H2O). A solution for an extracellular perfusate is composed of 135 mM NaCl, 5 mM KCl, 1 mM MgCl2, 2 mM CaCl2, 10 mM glucose, and 10 mM HEPES (pH 7.2, 300 mOsm/Kg H2O).
Test drug solutions were prepared by respectively diluting the inventive compounds with extracellular perfusate to a desired concentration. The prepared test drug solution was placed in a 7-array polyethylene tube connected into a capillary column for gas chromatography and was dropped from the tip of the column at a height of 100 μm or less to the HEK-hERG cell line.
3) Measurement of Ion Current
Potassium ion current was measured using EPC10 (Instrutech Co., NY, USA) patch clamp amplifier in accordance with the conventional whole-cell patch clamp method. Electrode used in the measurement was a borosilicate glass capillary (external diameter: 1.65 mm, inside diameter: 1.2 mm, Corning 7052, Gamer Glass Co., Claremont, Calif., USA) prepared by using P-97 Flaming-Brown micropipette puller (Sutter Instrument Co.). The electrode was coated with Sylgard 184 (Dow Corning Co., Midland, Mich., USA) and trimmed with microforge (Narishige Co., Tokyo, Japan). […] A culture dish containing HEK-hERG cells was placed in an inverted microscope (Nikon Co.) and extracellular perfusate containing the inventive compound was perfused at a rate of 1-2 mL/min. The membrane capacitance and series resistance of cell membrane were calibrated by 80% or more and potassium ion current was measured at a sampling rate of 2 kHz and a low-pass filter of 2 kHz (−3 dB; 8-pole Bassel filter). The test is conducted at room temperature (21-24° C.).
4) Data analysis and Statistics
The results were analyzed using Pulse/Pulsefit (v9.0, HEKA Elcktronik, Lambrecht, Germany) and Igor macro. The results were given as meant standard error.

[2] = Passage test through the blood-brain barrier in rats (brain tissue); type: in vivo, SD rats; conditions: for Cmax (brain) / Tmax: brain tissue; for Tmax / Kp: SD, rat; for Kp: brain, read-out: AUCBrain/AUC Plasma
Protocol: 1) Test Animal and Administration of Test Compound
Three 7 week-old ICR mice (weight: about 30 g) and three 8 week-old SD rats (weight: about 250 g) were used per test group. A solution prepared by dissolving the compounds of Examples 9 and 17 in excipient (DMSO/Tween 20/saline: 0.1/0.6/2.3, v/v/v) were administered to each experimental animal. The test compound was orally administered in an amount of 10 mL per kg of body weight or intravenously administered in an amount of 5 mL per kg of body weight through the fine vein.
2) Measurement of Concentration in Blood and Tissue (Simultaneous Test)
At 30 min, 1 hr, 2 hr, 4 hr, 10 hr and 24 hr after administration of test compound, the mice and rats were subjected to insufflations narcosis using isoflorane, followed by cutting the abdomen open. 1 mL of blood was collected from abdominal veins into the tube containing heparin (1000 IU/mL, 3 μl). The obtained blood sample was centrifuged at 12,000 rpm, for 2 min to obtain plasma. The obtained plasma was kept in freezer at −80° C. until the analysis.
(2) Organ Tissue-Sampling
The mice and rats from which the blood sample was obtained were subjected to bloodletting, and then, brain tissue of the mice and rats was collected. The brain tissue thus obtained was washed with physiological saline once or twice to remove blood. The weight of the brain tissue was measured after the removal of adipose tissue and peripheral tissue. 4% bovine serum albumin (BSA) solution diluted with 10-fold was added to the brain tissue. The resulting solution was subjected to homogenization using the homogenizer. The diluted homogenate thus obtained was placed in 2 ml of tube and was kept in freezer at −80° C. until the analysis. All of the treatments to the samples were performed in ice.
The sample was analyzed using LC/MSMS system under the following condition:
The sample was pretreated as follows:
50 μL of plasma were placed in 2.0 mL of tube having a cap (Eppendorf Co.) and acidified by adding 20 μL of 0.1% formic acid thereto. An internal standard solution and 1 mL of ethyl acetate as an extract solvent were added to the resultant solution. The resultant solution was mixed using thermomixer (Eppendorf Co.) at 1400 rpm for 5 min and then subjected to centrifuge (Eppendorf Co.). The supernatant was collected and concentrated at 35° C. using cyclone. The residue was re-dissolved in 50 μL of moblie phase and 5 μL of the resulting solution was injected into LC/MS and analyzed.
In Tables 8 and 9, “iv” refers to a intravenous injection; “po” refers to a per oral; “AUC plasma” refers to an area under the plasma level-time curve; “Cmax” refers to a maximum plasma concentration; “Tmax” refers to a time to reach Cmax, “BA” refers to a bioavailability (%) according to Equation 2 below; “AUC Brain” refers to a area under the brain tissue level-time curve; and “AUCBrain/AUCPlasma” refers to a passage rate of the test compound to the brain.

| SMILES | inhibitory efficacy on hERG potassium ion channel (in words) [1] | IC50 [1] [µM] | AUC Brain ([2]; 1.25 mg/kg, iv) [ng·h/mL] | AUC Brain ([2]; 2.5 mg/kg, po) [ng·h/mL] | Cmax (brain) ([2]; 2.5 mg/kg, po) [ng/mL] | Tmax ([2]; 2.5 mg/kg, po) [h] | Kp ([2]; 1.25 mg/kg, iv) | Kp ([2]; 2.5 mg/kg, po) |
| --- | --- | --- | --- | --- | --- | --- | --- | --- |
| COc1ccc2cc(C=Cc3ccc(N(C)C)cc3)oc2c1 [Compound 9, 6-methoxy-2-(4-dimethylaminostyryl)benzofuran] | insignificant inhibitory efficacy | 52.1 ± 3.68 | 17939.63 | 15241.92 | 1309.00 | 2 | 11 | 16.8 |
| CNc1ccc(C=Cc2cc3cc(OC)ccc3o2)cc1 [Compound 17, 5-methoxy-2-(4-methylaminostyryl)benzofuran] | insignificant inhibitory efficacy | 47.9 ± 5.26 | 8740.33 | 11237.67 | 1406.67 | 1.67 | 7.6 | 21.8 |
